Peptide text beside a SMILES is read from it.
What was measured:
[1] = test system: FL-p53 binding to nspDNA (random sequence); test: Fluorescence anisotropy titration of FL-p53 against nspDNA in the presence of peptide; type: biochemical, human
Source text: (§1) We prepared FL-p53, TetCT mutant, and CoreTet mutant as described previously. For FL-p53, the thermostable and cysteine-modified mutant of human p53 (C124A, C135V, C141V, W146Y, C182S, V203A, R209P, C229Y, H233Y, Y234F, N235K, Y236F, T253V, N268D, C275A, C277A, K292C) was used[11]. The TetCT mutant corresponds to residues 293−393 of human p53 with an additional N-terminal cysteine. The CoreTet mutant corresponds to residues 1–363 of FL-p53[12]. Expression and purification of the three mutants was conducted as previously described[11],[12]. Briefly, all mutants with a GST tag were expressed in Escherichia coli and were collected from a GST column after cleavage of the GST tag and further purified by using a heparin column. The DNA binding ability of all mutants was confirmed by titration experiments as described elsewhere[10]–[12]. […]
(§2) The fluorescence anisotropy of fluorescent CT peptide or DNA was measured at 25 °C using a fluorescence spectrometer (FP-6500, JASCO Co., Tokyo, Japan) with an automatic titrator and home-build autorotating polarizer. […] For p53 mutants, the concentration was calculated for the tetramer.

[2] = biological target: T1, CT peptide (residues 367–393 of human p53) (Homo sapiens, UniProt P04637); test: Fluorescence anisotropy titration of peptides against FAM-labeled CT peptide of p53; type: binding; details: absence of salt; versus Wmot2, Cul7, WS100B peptides
T1 construct: CT peptide (residues 367–393 of human p53) labeled with FAM at the N-terminus; purchased Toray Research Center Inc., Tokyo, Japan; host or cells: chemical synthesis
Method: To test how well our method worked, we titrated the designed peptides against the CT peptide (residues 367–393) labeled with a fluorescent dye, FAM, using a fluorometer with fluorescence anisotropy[11]
The fluorescence anisotropy of fluorescent CT peptide or DNA was measured at 25 °C using a fluorescence spectrometer (FP-6500, JASCO Co., Tokyo, Japan) with an automatic titrator and home-build autorotating polarizer[11]. […] The titration curves were fitted by the following equations:1 robs=rA(cA−cAB)/cA+rABcAB/cA, 2 cAB=(cA+cB+KD)−(cA+cB+KD)^2−4cAcB/2, where robs, rA, rAB, KD, cA, and cB are the observed anisotropy, anisotropy of free molecule A, anisotropy of the complex between molecules A and B, dissociation constant, total concentration of molecule A and total concentration of molecule B, respectively. For p53 mutants, the concentration was calculated for the tetramer.

[3] = biological target: T2, FL-p53 labeled with Atto532 sliding along nspDNA (λDNA array) (Homo sapiens, UniProt P04637, C124A/C135V/C141V/C182S/C229Y/C275A/C277A/H233Y/K292C/N235K/N268D/R209P/T253V/V203A/W146Y/Y234F/Y236F); test: Single-molecule fluorescence measurement of 1D sliding of FL-p53 along DNA (DNA garden); type: biochemical; details: displacement analysis, time interval 165 ms; for Fraction of fast sliding mode of FL-p53: 100 mM KCl, 2 mM MgCl2, pH 7.9
T2 construct: we prepared three p53 constructs: full-length p53 (FL-p53); GST (cleaved yes); made in house; host or cells: Escherichia coli
Method: The 1D sliding of FL-p53 labeled with Atto532 along DNA was measured by a custom-built TIRF microscope, as described previously[11],[39]. The λDNA array tethered on the coverslip of the flow cell was constructed using microcontact printing as described previously[39]. FL-p53 was labeled with Atto532 as described elsewhere[11]. FL-p53 with Atto532 at 2–4 nM was introduced into the flow cell with the DNA array by a syringe pump and measured at a flow rate of 500 μL/min, corresponding to 90% extension of λDNA. […] The experiments were conducted immediately after the dilution of FL-p53 from the stock solution at more than 10 μM and finished within 50 min to prevent the dissociation of the tetramer[40]. The analysis was described previously[11]. For distribution analysis, the following fitting equation was used:3 P(δx)=∑i=12Ai/4πDiδtexp(−(δx+viδt)^2/4Diδt), where P(δx), δt, δx, Ai, vi, and Di are the occurrence of δx, time interval, displacement in the time interval, amplitude of the ith mode, drift velocity of the ith mode, and diffusion coefficient of the ith mode, respectively.

[4] = test system: CoreTet mutant of p53 binding to spDNA (p21); test: Fluorescence anisotropy titration of CoreTet mutant against spDNA in the presence of DP6; type: biochemical, human; details: 600 μM DP6
Method: (§3) The solution used here included 100 mM KCl to mimic physiological conditions.
as §1, §2

[5] = test system: TetCT mutant of p53 binding to nspDNA (random sequence); test: Fluorescence anisotropy titration of TetCT mutant against nspDNA in the presence of DP6; type: biochemical, human; details: at more than 150 μM DP6; 100 mM KCl
Method: as §3, §1, §2

[6] = test system: FL-p53 binding to spDNA (p21); test: Fluorescence anisotropy titration of FL-p53 against spDNA in the presence of peptide; type: biochemical, human; details: saturated at 300 μM DP6
Source text: as §1, §2

Row | effect on the affinity of FL-p53 for DNA ([1]; DP5, nspDNA and spDNA (Fig. S7, Table S2)) | SMILES | KD of DP6 with respect to the CT domain, times stronger than the KD of the natural peptides [2] | increase of the KD of FL-p53 for nspDNA ([1]; at 600 μM than at 0 μM DP6) | Fraction of slow sliding mode of FL-p53 ([3]; [DP6] 300) | Fraction of fast sliding mode of FL-p53 ([3]; [DP6] 300) | Fraction of slow sliding mode of FL-p53 ([3]; [DP6] 600) | Fraction of fast sliding mode of FL-p53 ([3]; [DP6] 600) | effect on binding of the CoreTet mutant to spDNA [4] | anisotropy change for nspDNA on titration of TetCT mutant [5] | increase of the KD of FL-p53 for spDNA [6]
1 | did not affect the affinity of FL-p53 | NC(=O)C[C@H](NC(=O)[C@H](CC(N)=O)NC(=O)[C@H](CC(=O)O)NC(=O)[C@H](CCC(=O)O)NC(=O)[C@H](CCC(=O)O)NC(=O)[C@H](CCC(=O)O)NC(=O)[C@@H](N)CCC(=O)O)C(=O)N[C@@H](CC(=O)O)C(=O)N[C@@H](CC(=O)O)C(=O)N[C@@H](CC(=O)O)C(=O)N[C@@H](CCC(=O)O)C(=O)N[C@@H](CCC(=O)O)C(=O)N[C@@H](CCC(=O)O)C(=O)O [DP5] (H-EEEEDNNDDDEEE-OH) | – | – | – | – | – | – | – | – | –
2 | – | NC(=O)C[C@H](NC(=O)[C@H](CC(N)=O)NC(=O)[C@H](CC(=O)O)NC(=O)[C@H](CCC(=O)O)NC(=O)[C@H](CCC(=O)O)NC(=O)[C@H](CCC(=O)O)NC(=O)[C@H](CCC(=O)O)NC(=O)[C@@H](N)CCC(=O)O)C(=O)N[C@@H](CC(=O)O)C(=O)N[C@@H](CC(=O)O)C(=O)N[C@@H](CC(=O)O)C(=O)N[C@@H](CCC(=O)O)C(=O)N[C@@H](CCC(=O)O)C(=O)N[C@@H](CCC(=O)O)C(=O)N[C@@H](Cc1c[nH]c2ccccc12)C(=O)N[C@@H](Cc1ccccc1)C(=O)O [DP6] | at least 12 times | 7 fold | 54 ± 1% | 46 ± 2% | 31 ± 2% | 69 ± 1% | did not weaken the binding | no significant change in anisotropy | 3 fold

Source: PMC6599006, “Rational design using sequence information only produces a peptide that binds to the intrinsically disordered region of p53” (Scientific Reports, 2019)
